According to ChEMBL document CHEMBL2062361, “Synthesis and antiproliferative evaluation of some new amidino-substituted bis-benzothiazolyl-pyridines and pyrazine” (Eur J Med Chem, 2012):

How the values were obtained:
MCF7 = assay: Antiproliferative activity against human MCF7 cells after 72 hrs by MTT assay; assay type: functional, cell-based; settings: MCF7, 72 h
SK-BR-3 = assay: Antiproliferative activity against human SK-BR-3 cells after 72 hrs by MTT assay; assay type: functional, cell-based; settings: SK-BR-3, 72 h
SW-620 = assay: Antiproliferative activity against human SW620 cells after 72 hrs by MTT assay; assay type: functional, cell-based; settings: SW-620, 72 h
MIA PaCa-2 = assay: Antiproliferative activity against human MIAPaCa2 cells after 72 hrs by MTT assay; assay type: functional, cell-based; settings: MIA PaCa-2, 72 h
BJ = assay: Antiproliferative activity against human BJ cells after 72 hrs by MTT assay; assay type: cell-based
HeLa = assay: Antiproliferative activity against human HeLa cells after 72 hrs by MTT assay; assay type: functional, cell-based

| Compound | IC50 (MCF7) [µM] | IC50 (SK-BR-3) [µM] | IC50 (SW-620) [µM] | IC50 (MIA PaCa-2) [µM] | IC50 (BJ) [µM] | IC50 (HeLa) [µM] |
| --- | --- | --- | --- | --- | --- | --- |
| c1cc2nc(-c3cncc(-c4nc5ccc(C6=NCCN6)cc5s4)c3)sc2cc1C1=NCCN1 | 0.9 | 0.5 | 0.42 | 6.6 | 0.16 | 0.3 |
| N=C(N)c1ccc2nc(-c3ccnc(-c4nc5ccc(C(=N)N)cc5s4)c3)sc2c1 | 78.9 | > 100 | > 100 | 61.1 | 2.92 | > 100 |
| N=C(N)c1ccc2nc(-c3cncc(-c4nc5ccc(C(=N)N)cc5s4)c3)sc2c1 | > 100 | > 100 | > 100 | 86.7 | 15 | > 100 |
| c1cc2nc(-c3ccc(-c4nc5ccc(C6=NCCN6)cc5s4)nc3)sc2cc1C1=NCCN1 | 4.4 | 3.4 | 2.8 | 4.4 | 0.34 | 3.4 |
| c1cc2nc(-c3cnc(-c4nc5ccc(C6=NCCN6)cc5s4)cn3)sc2cc1C1=NCCN1 | 1.2 | 0.9 | 1.8 | 5.1 | 0.07 | 1.9 |
